This note sets out measurements from patent US6677335B1, “Pharmaceutically active compounds” (Pfizer Inc, priority 1999, dated 2004).

Structures are written as SMILES.

In assay [1] the target is T1, cGMP PDE5 (Homo sapiens, UniProt O76074).
T1 construct: The IC50 measurements for cGMP PDE5 were based upon data generated on human corpus cavernosum tissue; from tissue; host or cells: human corpus cavernosum
Kind of assay: In vitro PDE inhibitory activity against cGMP PDE5 (IC50). The format is biochemical. The settings on record: cGMP PDE5 from human corpus cavernosum tissue. From the text: (§1) The IC50 measurements for cGMP PDE5 were based upon data generated on human corpus cavernosum tissue and the IC50 measurements for rod cGMP PDE6 were based upon data generated on bovine retina tissue and wherein the selectivity ratio for cGMP PDE5 to cGMP PDE6 quoted is based upon IC50 PDE5/IC50 PDE6.

Assay [2] has as its target T2, rod cGMP PDE6 (Bos taurus, UniProt P11541+P23439).
T2 construct: the IC50 measurements for rod cGMP PDE6 were based upon data generated on bovine retina tissue; from tissue; host or cells: bovine retina
T2 sequence (P11541 2-856 limits assumed): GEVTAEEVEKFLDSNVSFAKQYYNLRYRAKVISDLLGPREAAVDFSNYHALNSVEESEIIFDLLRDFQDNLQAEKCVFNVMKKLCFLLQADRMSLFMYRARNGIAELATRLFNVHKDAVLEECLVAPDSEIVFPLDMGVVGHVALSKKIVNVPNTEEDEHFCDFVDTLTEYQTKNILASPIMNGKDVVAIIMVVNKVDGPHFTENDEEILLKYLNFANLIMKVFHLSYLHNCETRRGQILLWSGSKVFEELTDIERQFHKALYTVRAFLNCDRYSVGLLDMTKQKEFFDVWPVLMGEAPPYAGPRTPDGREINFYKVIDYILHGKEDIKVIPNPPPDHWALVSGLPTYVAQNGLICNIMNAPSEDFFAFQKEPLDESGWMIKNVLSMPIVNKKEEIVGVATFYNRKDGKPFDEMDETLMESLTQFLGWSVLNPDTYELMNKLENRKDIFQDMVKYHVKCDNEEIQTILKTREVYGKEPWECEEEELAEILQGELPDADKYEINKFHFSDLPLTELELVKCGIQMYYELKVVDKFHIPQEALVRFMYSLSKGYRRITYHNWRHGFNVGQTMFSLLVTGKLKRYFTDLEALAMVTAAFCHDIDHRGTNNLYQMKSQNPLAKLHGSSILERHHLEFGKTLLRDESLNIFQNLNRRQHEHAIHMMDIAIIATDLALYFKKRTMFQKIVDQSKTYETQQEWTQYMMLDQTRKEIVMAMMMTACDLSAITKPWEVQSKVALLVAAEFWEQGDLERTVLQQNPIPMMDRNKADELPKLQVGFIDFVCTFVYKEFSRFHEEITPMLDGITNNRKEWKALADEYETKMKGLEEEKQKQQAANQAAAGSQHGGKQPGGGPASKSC
T2 sequence (P23439 2-850 limits assumed): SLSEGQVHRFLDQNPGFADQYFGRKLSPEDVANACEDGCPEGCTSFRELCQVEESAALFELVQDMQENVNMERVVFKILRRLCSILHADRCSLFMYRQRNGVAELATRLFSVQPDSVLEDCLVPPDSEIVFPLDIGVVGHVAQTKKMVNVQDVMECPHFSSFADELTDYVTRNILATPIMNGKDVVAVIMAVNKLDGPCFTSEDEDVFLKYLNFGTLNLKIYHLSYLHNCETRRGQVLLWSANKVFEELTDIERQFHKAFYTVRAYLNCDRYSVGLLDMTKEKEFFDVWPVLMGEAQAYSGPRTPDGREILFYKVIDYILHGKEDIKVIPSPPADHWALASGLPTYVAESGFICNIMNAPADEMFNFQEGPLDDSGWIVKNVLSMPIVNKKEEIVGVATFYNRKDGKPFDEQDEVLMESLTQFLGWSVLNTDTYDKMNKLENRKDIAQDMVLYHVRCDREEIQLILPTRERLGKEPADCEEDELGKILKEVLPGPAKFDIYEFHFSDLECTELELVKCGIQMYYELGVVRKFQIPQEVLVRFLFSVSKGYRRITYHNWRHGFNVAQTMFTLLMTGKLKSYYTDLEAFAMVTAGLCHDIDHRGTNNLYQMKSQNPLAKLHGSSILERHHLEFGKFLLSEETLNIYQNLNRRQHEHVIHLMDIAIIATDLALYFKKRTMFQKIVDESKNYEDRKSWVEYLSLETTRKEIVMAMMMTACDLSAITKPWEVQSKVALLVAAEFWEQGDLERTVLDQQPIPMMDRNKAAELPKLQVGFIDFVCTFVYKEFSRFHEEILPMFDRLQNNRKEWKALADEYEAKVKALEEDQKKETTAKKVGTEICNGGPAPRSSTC
Kind of assay: In vitro PDE inhibitory activity against rod cGMP PDE6 (IC50), used for the PDE5 versus PDE6 selectivity. The format is biochemical. As to conditions: ratio of IC50 for cGMP PDE5 (human corpus cavernosum) and rod cGMP PDE6 (bovine retina).
Excerpt: as §1

Broadly, the IC50 is the concentration at which inhibition is half-maximal. High values mean weaker potency, low ones greater potency. As to `CCOc1ncc(S(=O)(=O)N2CCN(CC)CC2)cc1-c1nc2c(CC)n(CC(C)C)nc2c(=O)[nH]1` [Example 5], in assay [1], the half-inhibitory concentration (IC50) is 1 nM.
As for `CCOc1ncc(S(=O)(=O)N2CCN(CC)CC2)cc1-c1nc2c(CC)n(CCOC)nc2c(=O)[nH]1` [Example 8, 1-{6-ethoxy-5-[3-ethyl-6,7-dihydro-2-(2-methoxyethyl)-7-oxo-2H-pyrazolo[4,3-d]pyrimidin-5-yl]-3-pyridylsulfonyl}-4-ethylpiperazine], it took 1.68 nM to reach half-maximal inhibition in assay [1] (IC50). In addition, in assay [2], the “Selectivity (PDE 5/6)” value amounted to 223.8.
With `CCCCOc1ncc(S(=O)(=O)N2CCN(CC)CC2)cc1-c1nc2c(CC)n(CCN(C)C)nc2c(=O)[nH]1` [Example 17, 5-[2-n-Butoxy-5-(4-ethylpiperazin-1-ylsulphonyl)pryridin-3-yl]-2-dimethylaminoethyl-3-ethyl-2,6-dihydro-7H-pyrazolo[4,3-d]pyrimidin-7-one], the midpoint of inhibition in assay [1], the IC50, lay at 0.9 nM. In assay [2], the “Selectivity (PDE 5/6)” value is given as 254.1.
`CCOc1ncc(S(=O)(=O)N2CCN(CC)CC2)cc1-c1nc2c(CC)n(C3CN(C(C)=O)C3)nc2c(=O)[nH]1` [Example 22, 2-(1-Acetylazetidin-3-yl)-5-[2-ethoxy-5-(4-ethylpiperazin-1-ylsulphonyl)pyridin-3-yl]-3-ethyl-2,6-dihydro-7H-pyrazolo[4,3-d]pyrimidin-7-one] returned an IC50 in assay [1] of 6.4 nM. Moreover, in assay [2], the “Selectivity (PDE 5/6)” value is reported as 325.3.
In the same order, the values of `CCCOc1ncc(S(=O)(=O)N2CCN(CC)CC2)cc1-c1nc2c(CC)n(CCN(C)C(C)=O)nc2c(=O)[nH]1` [Example 24] are 1.52 nM and 134.9.
The corresponding values for `CCCc1c2nc(-c3cc(S(=O)(=O)N4CCN(CC)CC4)cnc3OCC(C)C)[nH]c(=O)c2nn1CCOC` [Example 27, 5-[2-isoButoxy-5-(4-ethylpiperazin-1-ylsulphonyl)pyridin-3-yl]-2-(2-methoxyethyl)-3-n-propyl-2,6-dihydro-7H-prazolo[4,3-d]pyrimidin-7-one] are 0.85 nM and 161.
`CCc1c2nc(-c3cc(S(=O)(=O)N4CCN(C)CC4)cnc3OCCOC)[nH]c(=O)c2nn1CC1CCC1` [Example 53, 2-Cyclobutylmethyl-3-ethyl-5-[2-(2-methoxyethoxy)-5-(4-methylpiperazin-1-ylsulphonyl)pyridin-3-yl]-2,6-dihydro-7H-pyrazolo[4,3-d]pyrimidin-7-one] yielded an IC50 in assay [1] of 1.09 nM.
In turn, `CCCCOc1ncc(S(=O)(=O)N2CCN(CC)CC2)cc1-c1nc2c(CC)n(CC(=O)N(C)C)nc2c(=O)[nH]1` [Example 60, 5-[2-n-Butoxy-5-(4-ethylpiperazin-1-ylsulphonyl)pyridin-3-yl]-2-[2-(dimethylamino)-2-oxoethyl]-3-ethyl-2,6-dihydro-7H-pyrazolo[4,3-d]pyrimidin-7-one] returned a 50% inhibitory concentration (IC50) in assay [1] of 0.45 nM. Moreover, the “Selectivity (PDE 5/6)” value in assay [2] was 343.7.
